The first assay deals with Wnt activity (Sp5-Luc reporter, SW480 colon carcinoma cells). As to the kind of experiment: Screening assay for Wnt activity: Sp5-Luc reporter gene assay in SW480 cells. The class given is cell-based. The following applies: Homo sapiens, 42 h incubation, luminescence. The source says: The screening assay for Wnt activity is described as follows. Reporter cell lines can be generated by stably transducing cancer cell lines (e.g., colon cancer) or primary cells (e.g., IEC-6 intestinal cells) with a lentiviral construct that includes a Wnt-responsive promoter driving expression of the firefly luciferase gene.
SW480 colon carcinoma cells were transduced with a lentiviral vector expressing luciferase with a human Sp5 promoter consisting of a sequence of eight TCF/LEF binding sites. SW480 cells stably expressing the Sp5-Luc reporter gene and a hygromycin resistance gene were selected by treatment with 150 μg/ml of hygromycin for 7 days. These stably transduced SW480 cells were expanded in cell culture and used for all further screening activities. For Sp5-Luc reporter gene assays, the cells were plated at 10,000 cells/well in 96-well plates with growth medium containing 10% fetal calf serum and incubated overnight at 37° C. and 5% CO2. Each compound was dissolved in DMSO as a 10 mM stock in standard j-vials and used to prepare compound source plates in dose-response format with 3-fold serial dilutions and a 10 mM top concentration. Compound transfer from serially diluted source plates to assay plates containing the cells was accomplished using a pintool (Multimek 96, Beckman equipped with V&P Scientific FP1S50H pins) based liquid handling protocol. This protocol used a slotted pin to transfer 50 nl of compound from a source plate well to an assay plate well containing 50 μl of cells in growth medium. […] Control wells received 50 nl of DMSO treatment for normalization and calculating IC50 values. The treated cells were incubated at 37° C. and 5% CO2 for an additional forty-two hours. Following incubation, the growth medium was removed and 50 μl of BrightGlo luminescence reagent (Promega) was added to each well of the 96-well assay plates. The plates were placed on an orbital shaker for 5 min and then luminescence was quantified on the Victor3 (Perkin Elmer) plate reader. Readings were normalized to DMSO only treated cells, and normalized activities were utilized for IC50 calculations using the dose-response log (inhibitor) vs. response-variable slope (four parameters) nonlinear regression feature available in GraphPad Prism 5.0 or 6.0.
A general note: A reporter such as luciferase makes a cellular process visible.
`COc1cncc(-c2ccc3[nH]nc(-c4nc5c(-c6cccc(F)c6)nccc5[nH]4)c3c2)c1` [Compound 1780, 4-(3-Fluorophenyl)-2-(5-(5-methoxypyridin-3-yl)-1H-indazol-3-yl)-1H-imidazo[4,5-c]pyridine]: the IC50 (as a rule, the concentration that gives 50% inhibition) was 0.025 µM.

For `CCCCC(=O)Nc1cncc(-c2ccc3[nH]nc(-c4nc5c(-c6ccccn6)nccc5[nH]4)c3c2)c1` [Compound 148, N-(5-(3-(4-(Pyridin-2-yl)-1H-imidazo[4,5-c]pyridin-2-yl)-1H-indazol-5-yl)pyridin-3-yl)pentanamide], half-maximal inhibition (IC50) was put at 0.248 µM.

Take `CN(C)Cc1cncc(-c2cc(F)c3[nH]nc(-c4nc5c(-c6cc(F)cc(CNS(C)(=O)=O)c6)nccc5[nH]4)c3c2)c1` [Compound 844, N-(3-(2-(5-(5-((Dimethylamino)methyl)pyridin-3-yl)-7-fluoro-1H-indazol-3-yl)-1H-imidazo[4,5-c]pyridin-4-yl)-5-fluorobenzyl)methanesulfonamide]: the midpoint of inhibition, the IC50, lay at 0.096 µM. Compared with the last molecule, the IC50 is about 2.6-fold lower.

The molecule `CN(C)Cc1cncc(-c2cc(F)c3[nH]nc(-c4nc5c(-c6cccc(F)c6)nccc5[nH]4)c3c2)c1` [Compound 456, 1-(5-(7-Fluoro-3-(4-(3-fluorophenyl)-1H-imidazo[4,5-c]pyridin-2-yl)-1H-indazol-5-yl)pyridin-3-yl)-N,N-dimethylmethanamine] returned an IC50 of 0.09 µM.

For the molecule `CN1CCN(c2nccc3[nH]c(-c4n[nH]c5ccc(-c6cn[nH]c6)cc45)nc23)CC1` [Compound 1915, 2-(5-(1H-pyrazol-4-yl)-1H-indazol-3-yl)-4-(4-methylpiperazin-1-yl)-1H-imidazo[4,5-c]pyridine], half-maximal inhibition (IC50) was put at 0.07 µM.

For the molecule `CN(C)Cc1cncc(-c2cc3c(-c4nc5c(-c6cccc(F)c6)nccc5[nH]4)n[nH]c3cc2F)c1` [Compound 898, 1-(5-(6-Fluoro-3-(4-(3-fluorophenyl)-1H-imidazo[4,5-c]pyridin-2-yl)-1H-indazol-5-yl)pyridin-3-yl)-N,N-dimethylmethanamine], half-maximal inhibition (IC50) required 1.45 µM.

`O=C(Nc1cncc(-c2ccc3[nH]nc(-c4nc5c(-c6ccccn6)nccc5[nH]4)c3c2)c1)c1ccccc1` [Compound 141, N-(5-(3-(4-(Pyridin-2-yl)-1H-imidazo[4,5-c]pyridin-2-yl)-1H-indazol-5-yl)pyridin-3-yl)benzamide] displayed an IC50 greater than 10 µM.

`CN(C)Cc1cncc(-c2ccc3[nH]nc(-c4nc5c(-c6cccc(F)c6)nccc5[nH]4)c3c2F)c1` [Compound 1339, 1-(5-(4-Fluoro-3-(4-(3-fluorophenyl)-1H-imidazo[4,5-c]pyridin-2-yl)-1H-indazol-5-yl)pyridin-3-yl)-N,N-dimethylmethanamine] had an IC50 of 1.18 µM.

The molecule `c1cncc(-c2ccc3[nH]nc(-c4nc5c(N6CCOCC6)nccc5[nH]4)c3c2)c1` [Compound 2272, 4-(2-(5-(Pyridin-3-yl)-1H-indazol-3-yl)-1H-imidazo[4,5-c]pyridin-4-yl) morpholine] displayed an IC50 of 0.02 µM.

In the case of `Cc1ncc(-c2ccc3[nH]nc(-c4nc5c(-c6cccc(F)c6)nccc5[nH]4)c3c2)n1C` [Compound 1773, 2-(5-(1,2-Dimethyl-1H-imidazol-5-yl)-1H-indazol-3-yl)-4-(3-fluorophenyl)-1H-imidazo[4,5-c]pyridine], the midpoint of inhibition, the IC50, lay at 0.023 µM.

Take `CC(=O)c1ccc(-c2nccc3[nH]c(-c4n[nH]c5ccc(-c6cncc(NC(=O)CC(C)(C)C)c6)cc45)nc23)s1` [Compound 380, N-(5-(3-(4-(5-Acetylthiophen-2-yl)-1H-imidazo[4,5-c]pyridin-2-yl)-1H-indazol-5-yl)pyridin-3-yl)-3,3-dimethylbutanamide]: the IC50 was determined as 0.187 µM.

The molecule `Cn1cc(-c2ccc3[nH]nc(-c4nc5c(N6CCC(F)(F)CC6)nccc5[nH]4)c3c2)cn1` [Compound 2281, 4-(4,4-Difluoropiperidin-1-yl)-2-(5-(1-methyl-1H-pyrazol-4-yl)-1H-indazol-3-yl)-1H-imidazo[4,5-c]pyridine] yielded an IC50 of 0.02 µM.

For the molecule `CN1CCN(c2nccc3[nH]c(-c4n[nH]c5ccc(-c6cncc(N)c6)cc45)nc23)CC1` [Compound 211, 5-(3-(4-(4-Methylpiperazin-1-yl)-1H-imidazo[4,5-c]pyridin-2-yl)-1H-indazol-5-yl)pyridin-3-amine], 0.0971 µM corresponded to half-maximal inhibition (IC50). This IC50 is about 4.9-fold higher than that of the molecule before.

For the molecule `Fc1cccc(-c2nccc3[nH]c(-c4n[nH]c5ccc(-c6cncc(OCCN7CCCC7)c6)cc45)nc23)c1` [Compound 1778, 4-(3-Fluorophenyl)-2-(5-(5-(2-(pyrrolidin-1-yl)ethoxy)pyridin-3-yl)-1H-indazol-3-yl)-1H-imidazo[4,5-c]pyridine], the IC50 was determined as 0.28 µM.

The molecule `CC(C)CC(=O)Nc1cncc(-c2ccc3[nH]nc(-c4nc5c(-c6cc(F)cc(OCCN7CCCC7)c6)nccc5[nH]4)c3c2)c1` [Compound 2120, N-(5-(3-(4-(3-Fluoro-5-(2-(pyrrolidin-1-yl)ethoxy)phenyl)-1H-imidazo[4,5-c]pyridin-2-yl)-1H-indazol-5-yl)pyridin-3-yl)-3-methylbutanamide] displayed an IC50 of 0.305 µM.

The molecule `O=C(CC1CCCCC1)Nc1cncc(-c2ccc3[nH]nc(-c4nc5c(-c6cccc(F)c6)nccc5[nH]4)c3c2)c1` [Compound 1783, 2-Cyclohexyl-N-(5-(3-(4-(3-fluorophenyl)-1H-imidazo[4,5-c]pyridin-2-yl)-1H-indazol-5-yl)pyridin-3-yl)acetamide] gave an IC50 of 0.505 µM. Against the preceding molecule, the IC50 is about 1.7-fold higher.

In the case of `CCCC(=O)Nc1cncc(-c2ccc3[nH]nc(-c4nc5c(-c6ccncc6)nccc5[nH]4)c3c2)c1` [Compound 121, N-(5-(3-(4-(Pyridin-4-yl)-1H-imidazo[4,5-c]pyridin-2-yl)-1H-indazol-5-yl)pyridin-3-yl)butyramide], the IC50 amounted to 0.102 µM.

Take `CN(C)Cc1cncc(-c2cc3c(-c4nc5c(-c6cc(F)cc(CNS(C)(=O)=O)c6)nccc5[nH]4)n[nH]c3cc2F)c1` [Compound 1288, N-(3-(2-(5-(5-((Dimethylamino)methyl)pyridin-3-yl)-6-fluoro-1H-indazol-3-yl)-1H-imidazo[4,5-c]pyridin-4-yl)-5-fluorobenzyl)methanesulfonamide]: half-maximal inhibition (IC50) required 0.637 µM.

Molecule `COc1cc(F)cc(-c2nccc3[nH]c(-c4n[nH]c5ccc(-c6cncc(NC(=O)CC(C)C)c6)cc45)nc23)c1` [Compound 2208, N-(5-(3-(4-(3-Fluoro-5-methoxyphenyl)-1H-imidazo[4,5-c]pyridin-2-yl)-1H-indazol-5-yl)pyridin-3-yl)-3-methylbutanamide] yielded an IC50 of 0.02 µM.

Molecule `Fc1cncc(-c2ccc3[nH]nc(-c4nc5c(N6CCC(F)(F)CC6)nccc5[nH]4)c3c2)c1` [Compound 2277, 4-(4,4-Difluoropiperidin-1-yl)-2-(5-(5-fluoropyridin-3-yl)-1H-indazol-3-yl)-1H-imidazo[4,5-c]pyridine] displayed an IC50 of 0.315 µM. Compared with the last molecule, the IC50 is about 16-fold higher.

The subject of the next assay is primary human fibroblasts derived from IPF patients (LL29 cells). Kind of assay: Inhibition of fibrosis: TGF-β1-treated primary human fibroblasts from IPF patients (LL29), αSMA staining. The settings on record: Fibroblast, 96 h, TGF-β1 20 ng/mL, 4 days, % αSMA-positive cells. It is filed as cell-based. The source says:
The above synthesized compounds were screened using primary human fibroblasts (derived from IPF patients) treated with TGF-β1 to determine their ability to inhibit the fibrotic process.
Primary human fibroblasts derived from IPF patients (LL29 cells) [^1Xiaoqiu Liu, et. al., “Fibrotic Lung Fibroblasts Show Blunted Inhibition by cAMP Due to Deficient cAMP Response Element-Binding Protein Phosphorylation”, Journal of Pharmacology and Experimental Therapeutics (2005), 315(2), 678-687; ^2Watts, K. L., et. al., “RhoA signaling modulates cyclin D1 expression in human lung fibroblasts; implications for idiopathic pulmonary fibrosis”, Respiratory Research (2006), 7(1), 88] were obtained from American Type Culture Collection (ATCC) and expanded in F12 medium supplemented with 15% Fetal Bovine Serum and Penicillin/Streptomycin.
Each compound was dissolved in DMSO as a 10 mM stock and used to prepare compound source plates. Serial dilution (1:2, 11-point dose-response curves from 10 μM to 1.87 nM) and compound transfer was performed using the ECHO 550 (Labcyte, Sunnyvale, Calif.) into 384-well clear bottom assay plates (Greiner Bio-One) with appropriate DMSO backfill for a final DMSO concentration of 0.1%. LL29 cells were plated at 1,500 cells/well in 80 μl/well F12 medium supplemented with 1% Fetal Bovine Serum. One hour after addition of the cells, TGF-β1 (Peprotech; 20 ng/mL) was added to the plates to induce fibrosis (ref 1 and 2 above). Wells treated with TGF-β1 and containing DMSO were used as controls. Cells were incubated at 37° C. and 5% CO2 for 4 days. Following incubation for 4 days, SYTOX green nucleic acid stain (Life Technologies [Thermo Fisher Scientific]) was added to the wells at a final concentration of 1 uM and incubated at room temperature for 30 min. Cells were then fixed using 4% formaldehyde (Electron Microscopy Sciences), washed 3 times with PBS followed by blocking and permeabilization using 3% Bovine Serum Albumin (BSA; Sigma) and 0.3% Triton X-100 (Sigma) in PBS. Cells were then stained with antibody specific to α-smooth muscle actin (αSMA; Abcam) (ref 1 and 2 above) in 3% Bovine Serum Albumin (BSA; Sigma) and 0.3% Triton X-100 (Sigma) in PBS, and incubated overnight at 4° C. Cells were then washed 3 times with PBS, followed by incubation with Alexa Flor-647 conjugated secondary antibody (Life Technologies [Thermo Fisher Scientific]) and DAPI at room temperature for 1 hour. Cells were then washed 3 times with PBS and plates were sealed for imaging. αSMA staining was imaged by excitation at 630 nm and emission at 665 nm and quantified using the Compartmental Analysis program on the CellInsight CX5 (Thermo Scientific). Dead or apoptotic cells were excluded from analysis based on positive SYTOX green staining. % of total cells positive for αSMA were counted in each well and normalized to the average of 11 wells treated with TGF-β1 on the same plate using Dotmatics' Studies Software. The normalized averages (fold change over untreated) of 3 replicate wells for each compound concentration were used to create dose-responses curves and EC50 values were calculated using non-linear regression curve fit in the Dotmatics' Studies Software. The EC50 values are reported.
For `COc1cncc(-c2ccc3[nH]nc(-c4nc5c(-c6cccc(F)c6)nccc5[nH]4)c3c2)c1` [Compound 1780, 4-(3-Fluorophenyl)-2-(5-(5-methoxypyridin-3-yl)-1H-indazol-3-yl)-1H-imidazo[4,5-c]pyridine], the EC50 – broadly, the midpoint of the concentration-response curve – came out at 0.019 µM.

For the origin of these results see patent US10081631B2, “2-(1H-indazol-3-yl)-1H-imidazo[4,5-C]pyridine and therapeutic uses thereof” (Samumed, LLC, priority 2014, dated 2018).
